Patent publication US20180215788A1, “Compounds and Compositions for the Treatment of Ophthalmic Disorders” (Shire Human Genetic Therapies, Inc., priority 2017, published 2018)
*1 amine or outer side, *2 acyl side, *3 side chain or, on linkers, in order; H or OH if unused. Where a SMILES comes first, the peptide text is derived from it. [ ]: non-standard residue; d: D form. The star is where a group is joined. dOrn(Me2) = CN(C)CCC[C@@H](N)C(=O)O; X1 = O=C([C@H]1CCCN([*:1])C1)[*:2]; Hyp = O=C(O)[C@@H]1C[C@@H](O)CN1; NMeL = CN[C@@H](CC(C)C)C(=O)O; Octanoyl = CCCCCCCC(=O)*

Test system: normotensive dogs
Test: Pharmacodynamics (IOP) after single topical ocular dose of SEQ ID NO:1, latanoprost or their combination
Format: in vivo
Conditions: for maximum percent change in intraocular pressure compared to contralateral eye / intraocular pressure: female dogs; for maximum percent change in intraocular pressure compared to contralateral eye: 0.03% SEQ ID NO:1, 0.005% latanoprost, alone or adjunctive, FIG. 6; for intraocular pressure: topical ocular 0.005% latanoprost, 0.03% SEQ ID NO:1, alone or adjunctively, FIG. 7
Protocol: A study of the pharmacodynamics following a single ascending topical ocular dose of SEQ ID NO:1; latanoprost; or a latanoprost/SEQ ID NO:1 combination was undertaken in normotensive dogs.
Animals were not fasted prior to dose administration. As appropriate, latanoprost was administered first followed by SEQ ID NO:1 approximately 5 minutes later. […] After the dose was administered, the eye was allowed to close naturally. Each animal was then restrained for approximately 1 minute to prevent rubbing of the eyes. The right eye was dosed first. All measurement and collection times were based on the time of dosing of the second (left) eye.
Following arrival, animals were preconditioned (trained) to IOP measurement procedures three times daily (i.e. 07:00, 12:00, and 15:00±0.5 hours) at least three times/week for approximately seven weeks prior to Phase 1. Three readings/eye were taken using a TonoVet.
Intraocular pressure was measured at −1, 0 (predose), 1, 2, 4, 8, 12, 24, and 48 hours postdose (following the last dose, as applicable) for all animals in Group 1, Phases 1 through 10. Three readings/eye were taken using a TonoVet.
Animals selected for pharmacodynamics (Group 1) were administered SEQ ID NO:1 (12, 35, 105, or 210 μg/eye), latanoprost (0.35, 0.875, or 1.75 μg/eye), and latanoprost/SEQ ID NO:1 in combination to the right eye (OD) and vehicle or phosphate-buffered saline (PBS) to the left eye (OS).
Intraocular pressure (IOP) was measured at various time points from pre-dose to 48 hours post-dose.
Pharmacodynamic animals (Group 1) were unilaterally treated with a single topical ocular dose of latanoprost (0.001, 0.0025, and 0.005%), followed by approximately 5 minutes later with a dose of SEQ ID NO:1 0.03%, in the right eye (OD) only.

Compound	maximum percent change in intraocular pressure compared to contralateral eye [%]	intraocular pressure [mmHg]	maximal delta decrease (Emax) in IOP, latanoprost dose response (dogs, latanoprost 0.001, 0.0025, 0.005% with SEQ ID NO:1 0.03%, FIG. 4)
CCCCCCCC(=O)N1CCC[C@H](C(=O)N[C@@H](Cc2ccccc2)C(=O)N[C@H](CCCN(C)C)C(=O)N[C@@H](CC(C)C)C(=O)N2C[C@H](O)C[C@H]2C(=O)N(C)[C@@H](CC(C)C)C(=O)N[C@@H](CC(=O)O)C(=O)N[C@@H](CCCNC(=N)N)C(=O)N[C@H](C(N)=O)[C@@H](C)CC)C1 [SEQ ID NO:1, Occ-Sni-Phe-orn(Me2)-Leu-Hyp-Nml-Asp-Arg-Ile-NH2] (Octanoyl-[X1]F[dOrn(Me2)]L[Hyp][NMeL]DRI-NH2)	16	12	
CC(C)OC(=O)CCC/C=C\C[C@@H]1[C@@H](CC[C@@H](O)CCc2ccccc2)[C@H](O)C[C@@H]1O [latanoprost]	21	12	greater with increasing latanoprost concentrations, in combination with SEQ ID NO:1
